The term IC50 denotes the concentration at which inhibition is half-maximal. In general, melting point refers to the temperature, or range, at which the solid turns liquid. Usually ILS stands for the gain in survival time of treated over control animals, in per cent.

The text below walks through data of paper PMC6749236, “Synthesis of Novel 2-(Het)arylpyrrolidine Derivatives and Evaluation of Their Anticancer and Anti-Biofilm Activity” (Molecules, 2019).

Molecules are shown by their SMILES.

In one series the test system is Chang liver cell line. The series is described as follows: Cytotoxicity assay (Cytell Cell Imaging), normal cell line. Conditions: Homo sapiens, read-out: IC50 Normal Cell Line Chang Liver. The format is cell-based.
For a further series, the system named is M-Hela. Description: Cytotoxicity assay (Cytell Cell Imaging, DAPI/propidium iodide), cancer cell line. Type of series: cell-based. Conditions: Homo sapiens, M-HeLa, read-out: IC50 Cancer Cell Line M-Hela.
Series [1] has as its system M-Hela cells. Description: Mitochondrial membrane potential, JC-10 flow cytometry. The format is cell-based, human. Conditions: IC50 concentration of 14.7 μM. The procedure: Effects on the mitochondrial membrane potential (Δψm) by lead compounds. In confirmation of data on the course of apoptosis in cells along an external pathway not associated with dysfunctional mitochondria, the ability of the tested compounds to reduce the potential of the mitochondrial membrane (Δψm) in M-Hela culture cells was examined using the example of compound 6g. Studies were performed using flow cytometry methods using JC-10 reagent. In normal cells with a high potential of the mitochondrial membrane, the dye JC-10 forms aggregates (J-aggregate) near the mitochondrial membranes. When the membrane potential due to the stimulation of apoptosis falls, JC-10 is evenly distributed in the cell as a monomer (J-monomer). JC-10 units in normal cells have red fluorescence, and JC-10 monomers are green. The ratio between orange-red and green fluorescence can be used to assess the onset of apoptosis. […] The results obtained indicate that the mechanism of action of the studied compounds is not associated with the induction of apoptosis, which proceeds along the mitochondrial pathway.
Flow Cytometry Assay. Mitochondrial membrane potential. […] After the cells were rinsed three times and suspended in PBS, the JC-10 fluorescence was observed by flow cytometry (Guava easy Cyte 8HT, Guava Technologies Inc., Hayward, CA, USA).
On the technique in general: A flow cytometer gives signals particle by particle.

Series [2] relates to early apoptosis markers (Caspase-8, Caspase-9) in M-Hela cell lysates. Description: Multiplex analysis of early apoptosis markers (MILLIPLEX MAP 7-plex, Luminex). Conditions: 24 h, IC50 concentration of 14.7 µM. The format is cell-based, human. As for the experimental part: Multiplex analysis of early apoptosis markers. Next, using the MILLIPLEX® MAP 7-plex Early Phase Apoptosis Signaling kit, seven markers of early apoptosis of JNK, Bad, Bcl-2, Akt, Caspase-9, p53, and Caspase-8 were detected in M-Hela cell lysates. The median fluorescence intensity (MFI) was measured using the Luminex® system. This assay is a quick and convenient alternative to Western blot and immunoprecipitation.
Multiplex analysis of early apoptosis markers. M-Hela cells were incubated for 24 hours with the test substance. Cells were lysed in MILLIPLEX® MAP Lysis buffer containing protease inhibitors. Twenty micrograms of total protein of each lysate diluted in MILLIPLEX® MAP Assay Buffer 2 was analyzed according to the analysis protocol (the lysate was incubated at 4 °C overnight). The mean fluorescence intensity (MFI) was detected using the Luminex® system, MERCK, USA.

Series [3] concerns M-Hela cells. Description: Induction of apoptotic effects (annexin V-Alexa Fluor 647, Cytell). Type of series: cell-based, human. To be noted: 24 hours of treatment, concentration corresponding to the IC50 value (14.7 μM). As for the experimental part:
Induction of Apoptotic Effects by test compounds. Cell Culture. M-Hela cells at 1 × 10^6 cells/well in a final volume of 2 mL were seeded into six-well plates. After 24 hours of incubation, a solution of the test compound 6g was added to the wells at the concentration studied.
Cytell Cell Imaging System Assay. M-Hela cells were plated into a 24-well plate (Eppendorf) at a concentration of 1 × 10^6 cells/mL, 500 µL of medium per well, and cultured in a CO2 incubator at 37 °C. Twenty-four hours after seeding the cells into wells the compound was added at a preset dilution, 500 µL to each well. […] Evaluation of apoptotic effects was performed with the help of multifunctional system Cytell Cell Imaging, using Cell Viability BioApp and Automated Imaging BioApp applications. The annexin V-Alexa Fluor 647 apoptosis detection kit, DAPI and propidium iodide purchased from Sigma.
Statistical analysis. The experiments were repeated three times. The cytometric results were analyzed by the Cytell Cell Imaging multifunctional system using the Cell Viability BioApp and Apoptosis BioApp application. The data in the tables and graphs are given as the mean ± standard error.

The nature of series [4]: Water solubility (selection for parenteral administration). Type of series: physicochemical.
The next series has as its system P388 murine leukemia. Description: In vivo anti-tumor activity, i.p. implanted leukemia. The arrangement: species or system BDF1 hybrid male mice. To be noted: for ILS / MST ± SD: P388; for Survival: day 60; for Survivors/Total: survivors on day 60. The procedure:
Animals. In vivo experiments were performed using the BDF1 hybrid male mice of 22–24 g weight. The experimental animals were caged in a standard vivarium in 12 h light conditions with free access to food and water. All manipulations with the animals were performed in accordance with the solutions of the Commission on Bioethics of the Institute of Problems of Chemical Physics, Russian Academy of Sciences (IPCP RAS).
Anti-tumor activity. The tumors were transplanted intraperitoneally (i.p.) in accordance with a standard procedure inoculum: 10^6 tumor cells in isotonic solution of NaCl, V = 0.2 cm^3 (leukemia P388). Original compounds were injected intraperitoneally as aqueous solution. Doses from 18 to 83 mg/kg/day and the mode of administration on days 1, 5, and 9 after transplantation were used. In each experiment, a single group of tumor-bearing animals not injected with the compounds served as the control group. Each group consisted of six mice. The animals were observed daily for survival for a minimum of 60 days. The efficacy of the therapy against leukemia (defined as increase in lifespan—ILS) was assessed as the percentage of the median survival time (MST) of the treated group (t) to that of the control group (c): ILS(%) = (MSTt/MSTc) × 100.
Statistics. The experiments were carried out in triplicate. The data are presented in the form X ± SD (mean ± standard deviation). The significance of the differences between the groups was assessed using Student’s t-test. Values of p < 0.05 were considered statistically significant. The data were processed statistically using GraphPad Prism.

The mark [5] stands for this setting: 18 mg/kg/day i.p., days 1, 5, 9.
Setting [6] is: 26 mg/kg/day i.p., days 1, 5, 9.
Where [7] appears, read: 40 mg/kg/day i.p., days 1, 5, 9.
Setting [8] is: 55 mg/kg/day i.p., days 1, 5, 9.
[9] abbreviates: 83 mg/kg/day i.p., days 1, 5, 9.

For `O=C(NC1CCCCC1)N1CCCC1c1ccc(Nc2c([N+](=O)[O-])c(Cl)cc3c2no[n+]3[O-])cc1O` (stereo not shown) [6g, 6-Chloro-4-((4-(1-(cyclohexylcarbamoyl)pyrrolidin-2-yl)-3-hydroxyphenyl)amino)-5-nitrobenzo[c][1,2,5]oxadiazole 1-oxide], the melting point was 170 to 175 °C (dec.). In addition, the IC50 in the series on Chang liver cell line is 46 ± 2.7 µM. In addition, in the series on M-Hela, the IC50 was found to be 14.7 ± 0.9 µM. Besides, the “decrease in mitochondrial membrane potential (Δψm)” value in the series with M-Hela cells [1] was “No decrease”. Also, in series [2], the “fluorescence intensity of Caspase-8 versus control” value is recorded as “two times higher” and the “fluorescence intensity of Caspase-9 versus control” value is “at the control level”. Further, the “M-Hela cells in which apoptosis was induced” value in the series with M-Hela cells [3] stood at 25%.

`CN(C)CCNC(=O)N1CCCC1c1cc2c(cc1O)OCO2.O=C(O)C(F)(F)F` (stereo not shown) [5h, 2-(2-(6-Hydroxybenzo[d][1,3]dioxol-5-yl)pyrrolidine-1-carboxamido)-N,N-dimethylethan-1-aminium 2,2,2-trifluoroacetate]: the IC50 with Chang liver cell line and in the series on M-Hela was greater than 100 µM each time. The “solubility in water, in words” value in series [4] is listed as “water-soluble”. Moreover, the ILS with P388 murine leukemia (setting [5]) was determined as 276%; in the series on P388 murine leukemia (setting [6]) it was 95%; with P388 murine leukemia (setting [7]) it was 447%; with P388 murine leukemia (setting [8]), 300%; with P388 murine leukemia (setting [9]), 100%. The “MST ± SD” value with P388 murine leukemia (setting [5]) turned out to be 35.7 ± 10.9 days; in the series with P388 murine leukemia (setting [6]), 18.5 ± 8.3 days; in the series on P388 murine leukemia (setting [7]), 52.0 ± 8.0 days; with P388 murine leukemia (setting [8]), 38.0 ± 9.9 days; in the series on P388 murine leukemia (setting [9]) it was 19.0 ± 8.2 days. In addition, the Survival in the series with P388 murine leukemia (18 mg/kg/day) turned out to be 50%; in the series on P388 murine leukemia (26 mg/kg/day), 17%; in the series on P388 murine leukemia (40 mg/kg/day) it was 83%; in the series with P388 murine leukemia (55 mg/kg/day), 50%; in the series on P388 murine leukemia (83 mg/kg/day) it was 17%. Moreover, the Survivors/Total in the series with P388 murine leukemia (18 mg/kg/day) is on record as 3/6; with P388 murine leukemia (26 mg/kg/day) it was 1/6; with P388 murine leukemia (40 mg/kg/day), 5/6; in the series on P388 murine leukemia (55 mg/kg/day), 3/6; in the series on P388 murine leukemia (83 mg/kg/day), 1/6. In addition, in the series with P388 murine leukemia (P388, dose range 18–83 mg/kg/day i.p., days 1, 5, 9), the “antitumor (anti-leukemic) activity, in words” value was “pronounced anti-leukemic activity”.
